Like-named read-outs stand apart in the source and are kept apart here.
Columns and labels:
human Nav1.7 = human Nav1.7 (Homo sapiens (Human), UniProt Q15858); test: FLIPR or FLIPR TETRA sodium dye assay with KCl and test article pre-incubation (sodium mobilization); assay type: cell-based
hNav1.7 = hNav1.7 (Homo sapiens (Human), UniProt Q15858); test: EP (electrophysiology) assay, whole-cell patch clamp in hNav1.7 expressing HEK-293 cells; assay type: cell-based; details: affinity for the inactivated state of the channel; hNav1.7 HEK-293; read-out: Nav1.7 Activity (μM) EP assay Ki
Sequence of hNav1.7 (Q15858 other isoform, or with tags, fused parts or gaps): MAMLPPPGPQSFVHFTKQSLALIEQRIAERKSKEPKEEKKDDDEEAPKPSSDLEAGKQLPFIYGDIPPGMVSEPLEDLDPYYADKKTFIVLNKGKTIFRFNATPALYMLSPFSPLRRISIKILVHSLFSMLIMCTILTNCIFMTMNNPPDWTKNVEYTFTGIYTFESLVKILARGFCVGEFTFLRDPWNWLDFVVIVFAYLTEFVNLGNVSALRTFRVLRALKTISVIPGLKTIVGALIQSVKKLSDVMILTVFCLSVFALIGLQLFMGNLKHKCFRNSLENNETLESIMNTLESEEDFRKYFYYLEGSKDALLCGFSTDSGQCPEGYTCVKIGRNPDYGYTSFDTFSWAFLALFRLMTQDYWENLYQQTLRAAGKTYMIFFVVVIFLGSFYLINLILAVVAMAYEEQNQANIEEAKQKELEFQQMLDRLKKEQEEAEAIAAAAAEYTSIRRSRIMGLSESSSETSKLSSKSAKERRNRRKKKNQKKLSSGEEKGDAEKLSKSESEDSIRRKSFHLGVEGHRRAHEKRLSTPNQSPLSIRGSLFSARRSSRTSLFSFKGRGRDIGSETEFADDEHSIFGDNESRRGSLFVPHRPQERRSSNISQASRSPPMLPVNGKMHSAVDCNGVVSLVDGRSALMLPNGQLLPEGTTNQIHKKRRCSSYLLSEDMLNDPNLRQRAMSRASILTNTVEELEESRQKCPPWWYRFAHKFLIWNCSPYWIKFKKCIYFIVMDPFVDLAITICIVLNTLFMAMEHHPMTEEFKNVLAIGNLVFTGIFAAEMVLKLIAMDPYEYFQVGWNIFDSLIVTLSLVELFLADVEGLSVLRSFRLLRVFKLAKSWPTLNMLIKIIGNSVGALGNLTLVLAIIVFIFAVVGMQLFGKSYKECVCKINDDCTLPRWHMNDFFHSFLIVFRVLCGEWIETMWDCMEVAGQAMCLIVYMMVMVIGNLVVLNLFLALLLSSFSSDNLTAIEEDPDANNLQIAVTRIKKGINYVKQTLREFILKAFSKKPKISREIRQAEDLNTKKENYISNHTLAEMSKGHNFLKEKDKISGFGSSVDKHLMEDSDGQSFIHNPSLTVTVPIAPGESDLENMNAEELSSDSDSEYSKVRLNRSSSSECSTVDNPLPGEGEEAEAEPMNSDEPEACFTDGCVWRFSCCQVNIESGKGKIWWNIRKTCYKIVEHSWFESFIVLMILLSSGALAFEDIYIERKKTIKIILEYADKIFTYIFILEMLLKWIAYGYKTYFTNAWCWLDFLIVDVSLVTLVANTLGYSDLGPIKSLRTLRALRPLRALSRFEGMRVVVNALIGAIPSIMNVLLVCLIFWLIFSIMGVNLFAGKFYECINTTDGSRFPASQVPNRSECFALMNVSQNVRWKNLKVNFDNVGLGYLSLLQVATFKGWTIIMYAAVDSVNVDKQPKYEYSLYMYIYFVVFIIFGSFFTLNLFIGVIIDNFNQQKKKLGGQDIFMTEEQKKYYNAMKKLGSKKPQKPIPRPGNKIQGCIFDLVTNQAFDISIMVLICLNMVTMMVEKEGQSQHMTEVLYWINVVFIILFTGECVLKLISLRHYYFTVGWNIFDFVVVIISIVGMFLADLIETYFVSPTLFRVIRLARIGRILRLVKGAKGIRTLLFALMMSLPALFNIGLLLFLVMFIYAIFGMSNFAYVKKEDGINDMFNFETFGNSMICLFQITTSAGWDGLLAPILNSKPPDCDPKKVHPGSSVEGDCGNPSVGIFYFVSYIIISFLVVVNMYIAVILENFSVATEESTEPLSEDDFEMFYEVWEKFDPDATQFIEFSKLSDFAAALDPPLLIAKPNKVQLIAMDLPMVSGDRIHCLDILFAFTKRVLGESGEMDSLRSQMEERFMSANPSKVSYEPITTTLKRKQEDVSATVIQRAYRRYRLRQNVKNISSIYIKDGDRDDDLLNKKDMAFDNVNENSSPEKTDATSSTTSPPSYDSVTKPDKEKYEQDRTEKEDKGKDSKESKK
Description: Cells Manual Electrophysiology: The hNav1.7 expressing HEK-293 cells are plated on 35 mm culture dishes pre-coated with poly-D-lysine in standard DMEM culture media (Mediatech, Inc., Herndon, Va.) and incubated in a 5% CO2 incubator at 37° C. Cultured cells are used approximately 12-48 h after plating.
The hNav1.7 expressing HEK-293 cells are plated on tissue culture flasks in standard DMEM culture media (Mediatech, Inc.) and incubated in a 5% CO2 incubator at 37° C. Cultured cells are used approximately 12-48 hours after plating.
On the day of experimentation, the 35 mm dish is placed on the stage of an inverted microscope equipped with a perfusion system that continuously perfuses the culture dish with fresh recording media. A gravity driven superfusion system is used to apply test solutions directly to the cell under evaluation. This “shooter” system consists of an array of glass pipette glass connected to a motorized horizontal translator. The outlet of the shooter is positioned approximately 100 μm from the cell of interest.
Gigaseals are formed and the whole-cell configuration is established in voltage clamp mode, and membrane currents generated by hNav1.7 channels are recorded. […] Signals are sampled at 50 kHz and low pass filtered at 3 kHz.
Gigaseals are formed and the whole-cell configuration is established in voltage clamp mode, and membrane currents generated by hNav1.7 are recorded. […]
After a stable baseline is established, the test compound is applied and block of the current elicited by the test pulse assessed. […] An estimate of the Ki is calculated as follows: Ki=[drug]*{FR/(1−FR)}, Eq. 1 where [drug] is the concentration of a drug, and FR=I(after drug)/I(control), Eq. 2
where I is the peak current amplitude. If multiple concentrations were used, Ki is determined from the fit of a logistic equation to FRs plotted against corresponding drug concentrations. […]
The compound testing protocol is a series of 10 ms depolarizations from the Vh1 (determined from the SSIN) to the Vt (determined from the I-V protocol) repeated every 10-15 seconds. […]

Sequence of human Nav1.7 (Q15858 with tags, fused parts or gaps limits assumed): as the sequence (Q15858 other isoform, or with tags, fused parts or gaps) above

SMILES | IC50 (human Nav1.7) [µM] | Ki (hNav1.7) [µM] | IC50 (human Nav1.7; recombinant human Nav1.7 in HEK293, veratridine and scorpion venom agonists) [µM]
Cn1ncc2c(Oc3ccc(-c4nc(N[C@H]5CCNC5=O)cc(C(N)=O)n4)cc3)ccc(Cl)c21 [Compound 20, (S)-2-(4-((7-chloro-1-methyl-1H-indazol-4-yl)oxy)phenyl)-6-((2-oxopyrrolidin-3-yl)amino)pyrimidine-4-carboxamide] | 0.405 ± 0.06 |  | 
Cn1ncc2c(Oc3ccc(-c4cccc(C(N)=O)n4)cc3)ccc(Cl)c21 [Compound 22, 6-(4-((7-chloro-1-methyl-1H-indazol-4-yl)oxy)phenyl)picolinamide] | 0.53 ± 0.034 |  | 
Cn1ncc2c(Oc3ccc(-c4nc(C(N)=O)cc([C@H](O)CO)n4)cc3)ccc(Cl)c21 [Compound 34, (S)-2-(4-((7-chloro-1-methyl-1H-indazol-4-yl)oxy)phenyl)-6-(1,2-dihydroxyethyl)pyrimidine-4-carboxamide] | 0.157 ± 0.023 | 0.12 ± 0.027 | 
Cn1ncc2c(Oc3ccc(-c4cc([C@H](O)CO)cc(C(N)=O)n4)cc3)ccc(Cl)c21 [Compound 38, (S)-6-(4-((7-chloro-1-methyl-1H-indazol-4-yl)oxy)phenyl)-4-(1,2-dihydroxyethyl)picolinamide] | 0.45 ± 0.026 |  | 
Cn1ncc2c(Oc3ccc(-c4cc([C@H](O)CO)cc(C(N)=O)n4)cc3)ccc(F)c21 [Compound 39, (S)-4-(1,2-dihydroxyethyl)-6-(4-((7-fluoro-1-methyl-1H-indazol-4-yl)oxy)phenyl)picolinamide] | 0.797 ± 0.051 | 0.47 ± 0.046 | 
Cn1ncc2c(Oc3ccc(-c4cc([C@@H](O)CO)cc(C(N)=O)n4)cc3)ccc(F)c21 [Compound 40, (R)-4-(1,2-dihydroxyethyl)-6-(4-((7-fluoro-1-methyl-1H-indazol-4-yl)oxy)phenyl)picolinamide] | 0.596 ± 0.076 |  | 
Cn1ncc2c(Oc3cc(F)c(S(=O)(=O)Nc4nncs4)cc3Cl)ccc(Cl)c21 [Compound 41, 5-chloro-4-((7-chloro-1-methyl-1H-indazol-4-yl)oxy)-2-fluoro-N-(1,3,4-thiadiazol-2-yl)benzenesulfonamide] |  |  | > 20
Cn1ncc2c(Oc3ccc(S(=O)(=O)Nc4nncs4)cc3)ccc(Cl)c21 [Compound 42, 4-((7-chloro-1-methyl-1H-indazol-4-yl)oxy)-N-(1,3,4-thiadiazol-2-yl)benzenesulfonamide] | > 20 | 9.01 ± 4.76 | 

Reference: patent US9834543B2, “Indazoles and use thereof” (Purdue Pharma L.P., priority 2013, dated 2017)
